From patent publication US4410716A, “Dibenzo[a,d]cycloheptene derivatives and process for production thereof” (Toa Eiyo Kagaku Kogyo Co. Ltd., priority 1979, dated 1983)
Where two headings read alike, the source gives them in different places.

How the values were obtained:
[1] = system: edema (carrageenin, hind paw); experiment: Anti-inflammatory activity: carrageenin hind paw edema in rats, oral administration; type: in vivo, male Donryu rats; conditions: Rattus norvegicus, po; for inhibition in vivo at 1 mg/kg / inhibition in vivo at 5 mg/kg / inhibition in vivo at 10 mg/kg: read-out: Percent edema inhibition
Experimental: (§1) The anti-inflammatory activity, analgesic activity and ulcerogenic activity of the novel dibenzo[a,d]cycloheptene derivatives of this invention were tested by the following methods.
Each of test compounds was orally administered to groups of male Donryu rats weighing 130 to 150 g (8 to 10 rats per group), and one hour later, 0.1 ml of a 1% carrageenin solution was injected subcutaneously into the hind paw of each rat. After injection of carrageenin, the volume of the paw was measured at predetermined periods, and the percent inhibition against a control group was calculated.

[2] = system: writhing syndromes (acetic acid); experiment: Analgesic activity: acetic acid writhing in mice; type: in vivo, male ICR mice
Experimental: as §1
Using male ICR mice weighing 25 to 30 g (10 mice per group), there was measured the number of writhing syndromes induced when a 1% solution of acetic acid was intraperitoneally injected at a dose of 10 ml/kg. The percent inhibition against a control group was calculated.

[3] = in vivo; conditions: rat, in vivo, po
Experimental: as §1
(§2) Sixteen hours later, the rats were sacrificed under ether anesthesia.
(§3) *Calculated by the Adami's method.
(§4) **Calculated by the LitchfieldWilcoxon's method. The parenthesized values
(§5) show 95% confidence limits.

[4] = system: gastric wall; experiment: in vivo; conditions: for Number of animals with ulcer/number of animals used: 16 hours; for Ulcer index (Mean ± SE): Adami's method
Experimental: as §1, §2, §3, §4, §5

COc1ccc2c(c1)c(CC(=O)O)c(C)n2C(=O)c1ccc(Cl)cc1 [Indomethacin, reference compound]
inhibition in vivo at 1 mg/kg ([1]; 1 h): 0% | inhibition in vivo at 5 mg/kg ([1]; 1 h): 3.9% | inhibition in vivo at 10 mg/kg ([1]; 1 h): 37.2% | inhibition in vivo at 1 mg/kg ([1]; 2 h): 20.3% | inhibition in vivo at 5 mg/kg ([1]; 2 h): 31.1% | inhibition in vivo at 10 mg/kg ([1]; 2 h): 45.3% | ED40 ([1]; 3 h, read-out: ED40 value): 9.8 mg/kg | inhibition in vivo at 1 mg/kg ([1]; 3 h): 6.3% | inhibition in vivo at 5 mg/kg ([1]; 3 h): 25.9% | inhibition in vivo at 10 mg/kg ([1]; 3 h): 41.8% | inhibition in vivo at 1 mg/kg ([1]; 4 h): 10.2% | inhibition in vivo at 5 mg/kg ([1]; 4 h): 31.7% | inhibition in vivo at 10 mg/kg ([1]; 4 h): 40.5% | Inhibition (writhing) ([2]; 1.25 mg/kg): 27.7% | Number of writhing syndromes (Mean ± SE) ([2]; 1.25 mg/kg): 14.6 ± 2.35 | Inhibition (writhing) ([2]; 2.5 mg/kg): 40.6% | Number of writhing syndromes (Mean ± SE) ([2]; 2.5 mg/kg): 12.0 ± 0.92 | Inhibition (writhing) ([2]; 5.0 mg/kg): 48.0% | Number of writhing syndromes (Mean ± SE) ([2]; 5.0 mg/kg): 10.5 ± 1.40 | Inhibition (writhing) ([2]; 10.0 mg/kg): 62.4% | Number of writhing syndromes (Mean ± SE) ([2]; 10.0 mg/kg): 7.6 ± 1.15 | Inhibition (writhing) ([2]; 20.0 mg/kg): 70.3% | Number of writhing syndromes (Mean ± SE) ([2]; 20.0 mg/kg): 6.0 ± 0.94 | ED50 ([2]; Mus musculus, po, read-out: ED50 value): 5 mg/kg | TD50 at 16 h [3]: 11.7 mg/kg | selectivity ratio [3]: 1.2 | Number of animals with ulcer/number of animals used ([4]; 3.13 mg/kg oral): 0/8 | Ulcer index (Mean ± SE) ([4]; 3.13 mg/kg oral): 0 | Number of animals with ulcer/number of animals used ([4]; 6.25 mg/kg oral): 2/8 | Ulcer index (Mean ± SE) ([4]; 6.25 mg/kg oral): 0.37 ± 0.26 | Number of animals with ulcer/number of animals used ([4]; 12.5 mg/kg oral): 4/8 | Ulcer index (Mean ± SE) ([4]; 12.5 mg/kg oral): 1.38 ± 0.53 | Number of animals with ulcer/number of animals used ([4]; 25.0 mg/kg oral): 7/8 | Ulcer index (Mean ± SE) ([4]; 25.0 mg/kg oral): 1.88 ± 0.35 | Number of animals with ulcer/number of animals used ([4]; 50.0 mg/kg oral): 8/8 | Ulcer index (Mean ± SE) ([4]; 50.0 mg/kg oral): 3.12 ± 0.12
